Like-named read-outs stand apart in the source and are kept apart here.
Key:
Format in all cases: in vivo
[1] = system: Aedes aegypti; experiment: whole plant or invertebrate; conditions: 48 h, A. aegypti larvae, incubated 2 days, read-out: mortality in comparison with untreated controls (larval mortality)
Procedure: For evaluating control of yellow fever mosquito (Aedes aegypti) the test unit consisted of 96-well-microtiter plates containing 200µl of tap water per well and 5-15 freshly hatched A. aegypti larvae.
The active compounds were formulated using a solution containing 75% (v/v) water and 25% (v/v) DMSO. Different concentrations of formulated compounds or mixtures were sprayed onto the insect diet at 2.5µl, using a custom built micro atomizer, at two replications.
After application, microtiter plates were incubated at 28 + 1°C, 80 + 5 % RH for 2 days. Larval mortality was then visually assessed.

[2] = system: dichromothrips corbetti; experiment: Orchid thrips floral-immersion test; conditions: 72 h, read-out: mortality in comparison with untreated controls
Procedure: Dichromothrips corbetti adults used for bioassay are obtained from a colony maintained continu-ously under laboratory conditions. For testing purposes, the test compound is diluted in a 1:1 mix-ture of acetone:water (vol:vol), plus Kinetic at a rate of 0.01% v/v.
Thrips potency of each compound is evaluated by using a floral-immersion technique. Each orchid petal is dipped into treatment solution and allowed to dry in Petri dishes. Treated petals are placed into individual re-sealable plastic along with about 20 adult thrips. All test arenas are held under dark condition and a temperature of about 28°C for duration of the assay. The percent mor-tality is recorded 72 hours after treatment.

[3] = system: Anthonomus grandis; experiment: Boll weevil (Anthonomus grandis) insect diet microtiter plate test; conditions: 120 h, read-out: mortality in comparison with untreated controls (egg and larval mortality)
Procedure: For evaluating control of boll weevil (Anthonomus grandis) the test unit consisted of 96-well-microtiter plates containing an insect diet and 5-10 A. grandis eggs.
The compounds were formulated using a solution containing 75% v/v water and 25% v/v DMSO. Different concentrations of formulated compounds were sprayed onto the insect diet at 5 µl, using a custom built micro atomizer, at two replications.
After application, microtiter plates were incubated at about 25 + 1°C and about 75 + 5 % relative humidity for 5 days. Egg and larval mortality was then visually assessed.

[4] = system: Aphis craccivora; experiment: Cowpea aphid (Aphis craccivora) spray test on potted cowpea plants; conditions: aphids of various stages, after 72 hours, read-out: mortality in comparison with untreated controls
Procedure: The active compound is dissolved at the desired concentration in a mixture of 1:1 (vol: vol) distilled water: acetone. Surfactant (Kinetic) is added at a rate of 0.01% (vol/vol). The test solution is prepared at the day of use.
Potted cowpea plants are colonized with approximately 30 - 50 aphids of various stages by man-ually transferring aphid-infested leaf clippings 24 hours before application. Plants are sprayed with the test solutions using a DeVilbiss® hand atomizer at 20- 30 psi (≈ 1.38 to 2.07 bar) after the pest population has been checked. Treated plants are maintained on light carts at about 25- 26°C. Estimate percent mortality is assessed after 72 hours.

[5] = system: Caenorhabditis elegans; experiment: Caenorhabditis elegans liquid diet microtiter plate test; conditions: 96 h, read-out: mortality in comparison with untreated controls (nematode motility (mortality))
Procedure: For evaluating control of Caenorhabditis elegans through contact or systemic means the test unit consisted of 96-well-microtiter plates containing a liquid diet.
The compounds or mixtures were formulated using a solution containing 75% water and 25% DMSO. Different concentrations of formulated compounds were sprayed into the microtiter plate wells at 5µl per well, using a custom built micro atomizer, at two replications. Mixed instar 60-100 C. elegans were transferred into the micro-titer plate wells. After application, the nematodes were incubated at 18 + 1°C, 70 + 5 % RH for 4 days. Nematode motility (mortality) was then visually assessed.

[6] = system: Heliothis virescens; experiment: Tobacco budworm (Heliothis virescens) insect diet microtiter plate test; conditions: 120 h, read-out: mortality in comparison with untreated controls (egg and larval mortality)
Procedure: For evaluating control of tobacco budworm (Heliothis virescens) the test unit consisted of 96-well-microtiter plates containing an insect diet and 15-25 H. virescens eggs.
The compounds were formulated using a solution containing 75% v/v water and 25% v/v DMSO. Different concentrations of formulated compounds were sprayed onto the insect diet at 10 µl, us-ing a custom built micro atomizer, at two replications.
After application, microtiter plates were incubated at about 28 + 1°C and about 80 + 5 % relative humidity for 5 days. Egg and larval mortality was then visually assessed.

[7] = system: Megoura viciae; experiment: Vetch aphid (Megoura viciae) broad bean leaf disk test; conditions: foliar, 120 h, read-out: mortality in comparison with untreated controls
Procedure: For evaluating control of vetch aphid (Megoura viciae) through contact or systemic means the test unit consisted of 24-well-microtiter plates containing broad bean leaf disks.
The compounds were formulated using a solution containing 75% v/v water and 25% v/v DMSO. Different concentrations of formulated compounds were sprayed onto the leaf disks at 2.5 µl, us-ing a custom built micro atomizer, at two replications.
After application, the leaf disks were air-dried and 5 - 8 adult aphids placed on the leaf disks in-side the microtiter plate wells. The aphids were then allowed to suck on the treated leaf disks and incubated at about 23 + 1°C and about 50 + 5 % relative humidity for 5 days. Aphid mortality and fecundity was then visually assessed.

[8] = system: Myzus persicae; experiment: Green peach aphid (Myzus persicae) artificial diet/membrane systemic test; conditions: 72 h, read-out: mortality in comparison with untreated controls
Text: For evaluating control of green peach aphid (Myzus persicae) through systemic means the test unit consisted of 96-well-microtiter plates containing liquid artificial diet under an artificial membrane.
The compounds were formulated using a solution containing 75% v/v water and 25% v/v DMSO. Different concentrations of formulated compounds were pipetted into the aphid diet, using a cus-tom built pipetter, at two replications.
After application, 5 - 8 adult aphids were placed on the artificial membrane inside the microtiter plate wells. The aphids were then allowed to suck on the treated aphid diet and incubated at about 23 + 1°C and about 50 + 5 % relative humidity for 3 days. Aphid mortality and fecundity was then visually assessed.

[9] = system: Nephotettix virescens; experiment: Rice green leafhopper (Nephotettix virescens) spray test on rice seedlings; conditions: adults, after 72 hours, read-out: mortality in comparison with untreated controls
Procedure: Four to five-week old rice seedlings with cut upper leaf portion are cleaned and washed 24 hours before spraying. The active compounds are formulated in 1:1 acetone:water (vol:vol), and 0.01% vol/vol surfactant (Kinetic) is added. Potted rice seedlings are sprayed with 5-6 ml test solution, air dried, covered with Mylar cages and inoculated with 10 adults. Treated rice plants are kept at about 28-29°C and relative humidity of about 50-60%. Percent mortality is recorded after 72 hours.

[10] = system: Nezara viridula; experiment: Green soldier stink bug (Nezara viridula) soybean pod spray test; conditions: 120 h, late 3rd instar N. viridula, after 5 days, read-out: mortality in comparison with untreated controls
Procedure: The active compound is dissolved at the desired concentration in a mixture of 1:1 (vol:vol) distilled water: aceteone. Surfactant (Kinetic) is added at a rate of 0.01% (vol/vol).The test solution is prepared at the day of use.
Soybean pods are placed in 90 x 50 mm glass Petri dishes lined with moistened filter paper and inoculated with ten late 3rd instar N. viridula. Using a hand atomizer, an approximately 2 ml solution is sprayed into each Petri dish. Treated set-up is kept at about 25-26°C and relative humidity of about 65-70%. Percent mortality is recorded after 5 days.

[11] = system: Plutella xylostella; experiment: Diamond back moth (Plutella xylostella) cabbage leaf disc dip test; conditions: foliar, 72 h, read-out: mortality in comparison with untreated controls
Procedure: The active compound is dissolved at the desired concentration in a mixture of 1:1 (vol:vol) distilled water: acetone. Surfactant (Kinetic) is added at a rate of 0.01% (vol/vol). The test solution is pre-pared at the day of use.
Cabbage leaf discs (60mm in diameter) are dipped in test solution and air-dried. Treated leaves are placed in petri dishes lined with moistened filter paper and inoculated with ten 3rd instar larvae. Mortality is recorded 72 hours after treatment. Feeding damage is also recorded using a scale of 0-100%.

[12] = system: Tetranychus kanzawai; experiment: Red spider mite (Tetranychus kanzawai) spray test on cowpea beans; conditions: 72 h, read-out: mortality in comparison with untreated controls
Procedure: The active compound is dissolved at the desired concentration in a mixture of 1:1 (vol:vol) distilled water: acetone. Add surfactant (Kinetic) is added at a rate of 0.01% (vol/vol). The test solution is prepared at the day of use.
Potted cowpea beans of 4-5 days of age are cleaned with tap water and sprayed with 1-2 ml of the test solution using air driven DeVilbiss® hand atomizer at 20- 30 psi (≈ 1,38 to 2,07 bar). The treated plants are allowed to air dry and afterwards inoculated with 30 or more mites by clipping a cassava leaf section from rearing population. Treated plants are placed inside a holding room at about 25-26°C and about 65-70% relative humidity. Estimate percent mortality is assessed 72 hours after treatment.

CCN1C(=O)SC(NC(=O)c2ccc(C3=NOC(c4cc(Cl)cc(Cl)c4)(C(F)(F)F)C3)cc2Cl)C1=O (stereo not drawn) [Compound I-1-2]
> 75%: mortality at 2500 ppm [1] | mortality at 300 ppm [2] | mortality at 2500 ppm [3] | mortality at 300 ppm [4] | mortality at 2500 ppm [5] | mortality at 2500 ppm [6] | mortality at 2500 ppm [7] | mortality at 2500 ppm [8] | mortality at 300 ppm [9] | mortality at 300 ppm [10] | mortality at 300 ppm [11] | mortality at 300 ppm ([12]; topical)

CN1C(=O)SC(NC(=O)c2ccc(C3=NOC(c4cc(Cl)cc(Cl)c4)(C(F)(F)F)C3)cc2Cl)C1=O (stereo not drawn) [Compound I-1-1]
> 75%: mortality at 2500 ppm [1] | mortality at 300 ppm [2] | mortality at 2500 ppm [3] | mortality at 300 ppm [4] | mortality at 2500 ppm [5] | mortality at 2500 ppm [6] | mortality at 2500 ppm [7] | mortality at 2500 ppm [8] | mortality at 300 ppm [9] | mortality at 300 ppm [10] | mortality at 300 ppm [11] | mortality at 300 ppm ([12]; topical)

CN1COC(CNC(=O)c2ccc(C3=NOC(c4cc(Cl)c(F)c(Cl)c4)(C(F)(F)F)C3)cc2Cl)C1=O (stereo not drawn) [Compound I-3-5, 2-chloro-4-[5-(3,5-dichloro-4-fluoro-phenyl)-5-(trifluoromethyl)-4H-isoxazol-3-yl]-N-[(3-methyl-4-oxo-oxazolidin-5-yl)methyl]benzamide]
> 75%: mortality at 2500 ppm [1] | mortality at 300 ppm [2] | mortality at 2500 ppm [3] | mortality at 300 ppm [4] | mortality at 2500 ppm [5] | mortality at 2500 ppm [6] | mortality at 2500 ppm [7] | mortality at 2500 ppm [8] | mortality at 300 ppm [9] | mortality at 300 ppm [10] | mortality at 300 ppm [11] | mortality at 300 ppm [12]

CCN1C(=O)SC(NC(=O)c2ccc(C3=NCC(c4cc(Cl)c(F)c(Cl)c4)(C(F)(F)F)C3)c3c2CCC3)C1=O (stereo not drawn) [Compound I-2-1]
> 75%: mortality at 2500 ppm [1] | mortality at 300 ppm [2] | mortality at 2500 ppm [3] | mortality at 300 ppm [4] | mortality at 2500 ppm [5] | mortality at 2500 ppm [6] | mortality at 2500 ppm [7] | mortality at 2500 ppm [8] | mortality at 300 ppm [9] | mortality at 300 ppm [10] | mortality at 300 ppm [11] | mortality at 300 ppm ([12]; topical)

CN1COC(CNC(=O)c2ccc(C3=NOC(c4cc(Cl)c(F)c(Cl)c4)(C(F)(F)F)C3)c3c2CCC3)C1=O (stereo not drawn) [Compound I-3-1]
> 75%: mortality at 2500 ppm [1] | mortality at 300 ppm [2] | mortality at 2500 ppm [3] | mortality at 300 ppm [4] | mortality at 2500 ppm [5] | mortality at 2500 ppm [6] | mortality at 2500 ppm [7] | mortality at 2500 ppm [8] | mortality at 300 ppm [9] | mortality at 300 ppm [10] | mortality at 300 ppm [11] | mortality at 300 ppm ([12]; topical)

Cc1cc(C2=NOC(c3cc(Cl)c(F)c(Cl)c3)(C(F)(F)F)C2)ccc1C(=O)NC1SC(=O)N(C(C)C)C1=O (stereo not drawn) [Compound I-1-11]
> 75%: mortality at 2500 ppm [1] | mortality at 300 ppm [2] | mortality at 2500 ppm [3] | mortality at 300 ppm [4] | mortality at 2500 ppm [5] | mortality at 2500 ppm [6] | mortality at 2500 ppm [7] | mortality at 2500 ppm [8] | mortality at 300 ppm [9] | mortality at 300 ppm [10] | mortality at 300 ppm [11] | mortality at 300 ppm ([12]; topical)

Source: EP3696177A1, “HETEROCYCLIC COMPOUNDS FOR THE CONTROL OF INVERTEBRATE PESTS” (BASF SE, priority 2019, dated 2020)
